The text below walks through data of PubChem BioAssay AID328 (DTP/NCI, 2004).

The test system of the test is BDF1 mice, P388 leukemia ip, median survival T/C. In words: NCI In Vivo Anticancer Drug Screen. Data for tumor model P388 Leukemia (intraperitoneal) in B6D2F1 (BDF1) mice. The conditions noted are these: endpoint: median survival time, higher = longer survival. Summed up: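 Mice carrying the transplantable tumour receive compound or vehicle. Survival is followed in each arm, and the treated measure is divided by the vehicle measure.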

The mark [1] stands for this setting: dose: 50.0 mg/kg/injection, schedule: Q01DX009 (ip), vehicle: saline with Tween-80.
Where [2] appears, read: dose: 50.0 mg/kg/injection, schedule: Q04DX003 (ip), vehicle: saline with Tween-80.
The mark [3] stands for this setting: dose: 100.0 mg/kg/injection, schedule: Q01DX009 (ip), vehicle: saline with Tween-80.
[4] abbreviates: dose: 100.0 mg/kg/injection, schedule: Q04DX003 (ip), vehicle: saline with Tween-80.
The mark [5] stands for this setting: dose: 200.0 mg/kg/injection, schedule: Q01DX009 (ip), vehicle: saline with Tween-80.
[6] abbreviates: dose: 200.0 mg/kg/injection, schedule: Q04DX003 (ip), vehicle: saline with Tween-80.
[7] abbreviates: dose: 400.0 mg/kg/injection, schedule: Q04DX003 (ip), vehicle: saline with Tween-80.
[8] abbreviates: dose: 6.25 mg/kg/injection, schedule: Q01DX009 (ip), vehicle: Klucel (hydroxypropylcellulose) (HPC).
The mark [9] stands for this setting: dose: 12.5 mg/kg/injection, schedule: Q01DX009 (ip), vehicle: Klucel (hydroxypropylcellulose) (HPC).
[10] abbreviates: dose: 25.0 mg/kg/injection, schedule: Q01DX009 (ip), vehicle: Klucel (hydroxypropylcellulose) (HPC).
[11] abbreviates: dose: 25.0 mg/kg/injection, schedule: Q01DX009 (ip), vehicle: saline with Tween-80.
Setting [12] is: dose: 25.0 mg/kg/injection, schedule: Q01DX009 (ip), vehicle: saline.
Where [13] appears, read: dose: 50.0 mg/kg/injection, schedule: Q01DX009 (ip), vehicle: saline.

SMILES strings stand for the structures. Several values for one entry are separate records, joined by “and”; a condition that tells them apart may be missing. Equal values may be shown once. Inconclusive results and toxic doses are left out.

Regarding `COc1cc([C@@H]2c3cc4c(c(O)c3C[C@H]3COC(=O)[C@@H]32)OCO4)cc(OC)c1OC`, the T/C is 115 % of control (dose: 0.5 mg/kg/injection, schedule: Q01DX001 (ip), vehicle: other); 90 % of control (dose: 0.5 mg/kg/injection, schedule: Q01DX001 (ip), vehicle: saline); 122 % of control (dose: 0.5 mg/kg/injection, schedule: Q01DX010 (ip), vehicle: other); 121 % of control (dose: 1.0 mg/kg/injection, schedule: Q01DX001 (ip), vehicle: other); 109 % of control (dose: 1.0 mg/kg/injection, schedule: Q01DX001 (ip), vehicle: saline); 150 % of control (dose: 1.0 mg/kg/injection, schedule: Q01DX010 (ip), vehicle: other). The T/C (dose: 2.0 mg/kg/injection, schedule: Q01DX001 (ip), vehicle: saline) is 118 % of control; the T/C (dose: 2.0 mg/kg/injection, schedule: Q01DX010 (ip), vehicle: other) was 168 % of control; the T/C (dose: 2.0 mg/kg/injection, schedule: Q01DX010 (ip), vehicle: saline) was 104 % of control; the T/C (dose: 4.0 mg/kg/injection, schedule: Q01DX001 (ip), vehicle: saline) was 118 % of control.

As to `NC(=S)S/C=C/C(=O)O`, the T/C is, setting by setting: under setting [1], 96 % of control; under setting [2], 100 % of control; under setting [3], 94 % of control; under setting [4], 107 % of control; under setting [5], 100 % of control; under setting [6], 103 % of control. Besides, under setting [7], the T/C was 115 % of control.

Regarding `N#CSc1ccc(Nc2ccc(SC#N)cc2)cc1`, the T/C was 100 % of control under setting [8]; 100 % of control under setting [9]; 118 % of control under setting [10]; 108 % of control (dose: 35.0 mg/kg/injection, schedule: Q01DX009 (ip), vehicle: Klucel (hydroxypropylcellulose) (HPC)); 109 % of control (dose: 50.0 mg/kg/injection, schedule: Q01DX009 (ip), vehicle: Klucel (hydroxypropylcellulose) (HPC)); 105 % of control (dose: 53.0 mg/kg/injection, schedule: Q01DX009 (ip), vehicle: Klucel (hydroxypropylcellulose) (HPC)). The T/C by setting is: (dose: 80.0 mg/kg/injection, schedule: Q01DX009 (ip), vehicle: Klucel (hydroxypropylcellulose) (HPC)) 109 % of control and 110 % of control; (dose: 120.0 mg/kg/injection, schedule: Q01DX009 (ip), vehicle: Klucel (hydroxypropylcellulose) (HPC)) 120 % of control and 122 % of control.

As to `c1ccc(-c2nc3ncccn3n2)cc1`, the T/C by setting is: under setting [11], 97 % of control; under setting [1], 106 % of control and 111 % of control; under setting [3], 104 % of control and 120 % of control; under setting [5], 104 % of control and 112 % of control.

`C[C@]12C[C@H](O)[C@H]3[C@@H](CCC4=CC(=O)CC[C@@]43C)[C@@H]1CC[C@@H]2C(=O)CO`: the T/C is 95 % of control (dose: 45.0 mg/kg/injection, schedule: Q04DX003 (sc), vehicle: steriod suspending solution); 100 % of control (dose: 65.0 mg/kg/injection, schedule: Q04DX003 (sc), vehicle: steriod suspending solution); 115 % of control (dose: 200.0 mg/kg/injection, schedule: Q04DX003 (sc), vehicle: steriod suspending solution); 109 % of control (dose: 264.0 mg/kg/injection, schedule: Q01DX009 (sc), vehicle: steriod suspending solution); 110 % of control (dose: 264.0 mg/kg/injection, schedule: Q04DX003 (sc), vehicle: steriod suspending solution); 122 % of control (dose: 400.0 mg/kg/injection, schedule: Q01DX009 (sc), vehicle: steriod suspending solution). The T/C (dose: 400.0 mg/kg/injection, schedule: Q04DX003 (sc), vehicle: steriod suspending solution) was 110 % of control.

Take `CC12C(C#N)=C(c3ccccc3)C=C(c3ccccc3)C1=C(c1ccccc1)c1ccccc12` (stereo not drawn): the T/C is 108 % of control (dose: 100.0 mg/kg/injection, schedule: Q04DX003 (ip), vehicle: Klucel (hydroxypropylcellulose) (HPC)); 95 % of control (dose: 200.0 mg/kg/injection, schedule: Q04DX003 (ip), vehicle: Klucel (hydroxypropylcellulose) (HPC)); 91 % of control (dose: 400.0 mg/kg/injection, schedule: Q04DX003 (ip), vehicle: Klucel (hydroxypropylcellulose) (HPC)).

On to `O=C(O)C(OP(=O)(O)O)C(=O)O`, for which the T/C by setting is: under setting [12], 110 % of control; under setting [13], 95 % of control; (dose: 100.0 mg/kg/injection, schedule: Q01DX009 (ip), vehicle: saline) 94 % of control; (dose: 200.0 mg/kg/injection, schedule: Q01DX009 (ip), vehicle: saline) 100 % of control.

Consider `COc1ccc2c(c1)CCC1C2=CC(=O)/C1=C\[O-].COc1ccc2c(c1)CCC1C2=CC(=O)/C1=C\[O-].[Cu+2]` (stereo not drawn), for which the T/C (dose: 12.5 mg/kg/injection, schedule: Q04DX003 (ip), vehicle: saline with Tween-80) was 113 % of control and the T/C (dose: 25.0 mg/kg/injection, schedule: Q04DX003 (ip), vehicle: saline with Tween-80) is 109 % of control.

`CC(C)(C)c1cc(I)c(O)c(CN)c1`: the T/C is, setting by setting: (dose: 12.5 mg/kg/injection, schedule: Q01DX009 (ip), vehicle: saline with Tween-80) 105 % of control; (dose: 12.5 mg/kg/injection, schedule: Q01DX009 (ip), vehicle: saline) 95 % of control; under setting [11], 109 % of control; under setting [12], 104 % of control; under setting [1], 114 % of control; under setting [13], 104 % of control. Moreover, under setting [3], the T/C is 114 % of control.

`Cc1ccc(CNc2ccc(I)cc2)cc1`: the T/C runs as follows: under setting [4], 105 % of control; under setting [6], 95 % of control; under setting [7], 105 % of control.

As for `OC1(O)CCN(Cc2ccccc2)CC1`, the T/C is 122 % of control under setting [1]; 95 % of control under setting [2]; 104 % of control under setting [3]; 100 % of control under setting [4]; 95 % of control under setting [5]; 105 % of control under setting [6].

Turning to `CC(=O)c1cc(CN(CCCl)CCCl)c(O)c(CN(CCCl)CCCl)c1O`, the T/C is, setting by setting: (dose: 0.05 mg/kg/injection, schedule: Q01DX009 (ip), vehicle: Klucel (hydroxypropylcellulose) (HPC)) 100 % of control; (dose: 0.1 mg/kg/injection, schedule: Q01DX009 (ip), vehicle: Klucel (hydroxypropylcellulose) (HPC)) 120 % of control; (dose: 0.2 mg/kg/injection, schedule: Q01DX009 (ip), vehicle: Klucel (hydroxypropylcellulose) (HPC)) 110 % of control; (dose: 0.4 mg/kg/injection, schedule: Q01DX009 (ip), vehicle: Klucel (hydroxypropylcellulose) (HPC)) 120 % of control; (dose: 5.5 mg/kg/injection, schedule: Q01DX009 (ip), vehicle: Klucel (hydroxypropylcellulose) (HPC)) 162 % of control; under setting [8], 118 % of control. The T/C by setting is: (dose: 8.0 mg/kg/injection, schedule: Q01DX009 (ip), vehicle: Klucel (hydroxypropylcellulose) (HPC)) 166 % of control; (dose: 8.3 mg/kg/injection, schedule: Q01DX009 (ip), vehicle: Klucel (hydroxypropylcellulose) (HPC)) 166 % of control; (dose: 12.0 mg/kg/injection, schedule: Q01DX009 (ip), vehicle: Klucel (hydroxypropylcellulose) (HPC)) 183 % of control; under setting [9], 183 % of control and 190 % of control; (dose: 18.0 mg/kg/injection, schedule: Q01DX009 (ip), vehicle: Klucel (hydroxypropylcellulose) (HPC)) 250 % of control; under setting [10], 154 % of control.

Consider `CC(=O)N(C)C`, for which the T/C (dose: 300.0 mg/kg/injection, schedule: Q01DX010 (ip), vehicle: saline) is 104 % of control; the T/C (dose: 600.0 mg/kg/injection, schedule: Q01DX010 (ip), vehicle: saline) is 104 % of control; the T/C (dose: 1200.0 mg/kg/injection, schedule: Q01DX010 (ip), vehicle: saline) is 119 % of control; the T/C (dose: 2400.0 mg/kg/injection, schedule: Q01DX010 (ip), vehicle: saline) is 119 % of control; the T/C (dose: 3600.0 mg/kg/injection, schedule: Q01DX010 (ip), vehicle: saline) was 168 % of control.
